Data: patent publication US20160075653A1, “NEMATICIDAL N-(PHENYLCYCLOALKYL)CARBOXAMIDES AND N-(PHENYLCYCLOALKYL)THIOCARBOXAMIDES” (BAYER CROPSCIENCE AKTIENGESELLSCHAFT, priority 2013, published 2016)
Where two headings read alike, the source gives them in different places.

Tests used:
Meloidogyne incognita = Meloidogyne incognita test (MELGIN), gall formation on salad seedlings; assay type: in vivo; settings: application rate 20 ppm, after 14 days
Description: Meioidovnve incomita—Test (MELGIN)
Solvent: 125.0 parts by weight of acetone
To produce a suitable preparation of active compound, 1 part by weight of active compound is mixed with the stated amount of solvent, and the concentrate is diluted with water to the desired concentration.
Vessels are filled with sand, a solution of the active ingredient, a suspension containing eggs and larvae of the southern root-knot nematode (Meloidogyne incognita) and salad seeds. The salad seeds germinate and the seedlings grow. Galls develop in the roots.
After 14 days the nematicidal activity is determined on the basis of the percentage of gall formation. 100% means that no galls were found; 0% means the number of galls found on the roots of the treated plants was equal to that in untreated control plants.

[1] = Measurement of log P values by HPLC on reversed phase columns (methods [a] pH 2.3, [b] pH 2.7, [c] pH 7.8); assay type: physicochemical; settings: for chromatographic logP: reversed phase HPLC columns
Outline: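 Retention times were converted to log P by linear interpolation between linear alkan-2-one standards (3 to 16 carbons) of known log P. Eluents, each with 10% to 95% acetonitrile gradient: phosphoric acid 0.1% at pH 2.3 [a]; formic acid 0.1% at pH 2.7, LC-MS [b]; ammonium hydrogen carbonate 0.001 molar at pH 7.8, LC-MS [c].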

[2] = HPLC on reversed phase column, method [b], pH 2.7
[3] = method [b], HPLC reversed phase, pH 2.7
[4] = method [c], HPLC reversed phase, pH 7.8
[5] = HPLC reversed phase, method [b] (pH 2.7)
[6] = HPLC reversed phase, method [c] pH 7.8

In the case of `O=C(N[C@@H]1CC[C@@H]1c1ccccc1C(F)(F)F)c1ccccc1[N+](=O)[O-]` (relative stereo) [Compound 638], the “nematicidal activity (percentage of gall formation; 100% = no galls)” value (Meloidogyne incognita) is reported as 100% and the logP [1, 2] is reported as 2.93^[b].
In the case of `O=C(N[C@@H]1CC[C@@H]1c1cccc(F)c1C(F)(F)F)c1c(F)cccc1F` (relative stereo) [Compound 639], the “nematicidal activity (percentage of gall formation; 100% = no galls)” value (Meloidogyne incognita) is reported as 100% and the logP [1, 2] is reported as 3.08^[b].
With `O=C(N[C@@H]1CC[C@@H]1c1cccc(F)c1C(F)(F)F)c1cccnc1C(F)(F)F` (relative stereo) [Compound 641] the “nematicidal activity (percentage of gall formation; 100% = no galls)” value (Meloidogyne incognita) was 100% and the logP [1, 2] was 2.97^[b].
With `O=C(N[C@@H]1CC[C@H]1c1cccc(F)c1C(F)(F)F)c1cccnc1C(F)(F)F` (relative stereo) [Compound 642] the “nematicidal activity (percentage of gall formation; 100% = no galls)” value (Meloidogyne incognita) was 90% and the logP [1, 2] was 3.15^[b].
In the case of `O=C(N[C@@H]1CC[C@@H]1c1cccc(F)c1C(F)(F)F)c1nccnc1Cl` (relative stereo) [Compound 645], the “nematicidal activity (percentage of gall formation; 100% = no galls)” value (Meloidogyne incognita) is reported as 100% and the logP [1, 2] is reported as 2.78^[b].
For `O=C(N[C@@H]1CC[C@@H]1c1cccc(F)c1C(F)(F)F)c1cccnc1Cl` (relative stereo) [Compound 647], the “nematicidal activity (percentage of gall formation; 100% = no galls)” value (Meloidogyne incognita) was 100% and the logP [1, 2] was 2.66^[b].
In the case of `O=C(N[C@@H]1C[C@@H]1c1ccc(Cl)cc1Cl)c1ncccc1Cl` (relative stereo) [Compound 649], the “nematicidal activity (percentage of gall formation; 100% = no galls)” value (Meloidogyne incognita) is reported as 100%, the logP [1, 2] is reported as 2.93^[b] and the logP ([1]; HPLC on reversed phase column, method [c], pH 7.8) is reported as 2.91^[c];.
With `O=C(N[C@H]1CCC1c1c(F)cccc1F)c1cccnc1C(F)(F)F` (stereo in doubt) [Compound 236, cis-N-[2-(2,6-difluorophenyl)cyclobutyl]-2-(trifluoromethyl)nicotinamide] the “nematicidal activity (percentage of gall formation; 100% = no galls)” value (Meloidogyne incognita) was 100%, the chromatographic logP ([1]; HPLC-MS, method letter not given, read-out: log P) was 2.6 and the chromatographic logP ([1]; pH 2.7, method [b], HPLC reversed phase, pH 2.7, read-out: logP) was 2.6.
For `Cn1cc(C(=O)NC2CC2c2ccc(Cl)cc2)c(C(F)(F)F)n1` (stereo not drawn) [Compound 11], the “nematicidal activity (percentage of gall formation; 100% = no galls)” value (Meloidogyne incognita) was 90% and the logP ([1]; HPLC on reversed phase columns, method [b], pH 2.7) was 3.43^[b].
For `O=C(NC1CC1c1ccc(Cl)cc1Cl)c1sccc1I` (stereo not drawn) [Compound 212], the “nematicidal activity (percentage of gall formation; 100% = no galls)” value (Meloidogyne incognita) was 100%, the logP [1, 3] was 4.10^[b] and the logP [1, 4] was 4.04^[c];.
In the case of `O=C(NC1CC1c1ccc(Cl)cc1Cl)c1sccc1Cl` (stereo not drawn) [Compound 213], the “nematicidal activity (percentage of gall formation; 100% = no galls)” value (Meloidogyne incognita) is reported as 100%, the logP [1, 3] is reported as 4.08^[b] and the logP [1, 4] is reported as 4.02^[c];.
With `O=C(NC1CC1c1ccc(Cl)cc1Cl)c1occc1Br` (stereo not drawn) [Compound 214] the “nematicidal activity (percentage of gall formation; 100% = no galls)” value (Meloidogyne incognita) was 100%, the logP [1, 3] was 3.56^[b] and the logP [1, 4] was 3.44^[c];.
In the case of `O=C(NC1CCC1c1ccccc1C(F)(F)F)c1ncccc1Cl` (stereo not drawn) [Compound 215], the “nematicidal activity (percentage of gall formation; 100% = no galls)” value (Meloidogyne incognita) is reported as 90% and the logP [1, 3] is reported as 3.01^[b].
With `O=C(NC1CCC1c1ccccc1C(F)(F)F)c1ccccc1Br` (stereo not drawn) [Compound 216] the “nematicidal activity (percentage of gall formation; 100% = no galls)” value (Meloidogyne incognita) was 100% and the logP [1, 3] was 3.32^[b].
In the case of `O=C(NC1CCC1c1ccccc1C(F)(F)F)c1ccc(Cl)cc1Cl` (stereo not drawn) [Compound 217], the “nematicidal activity (percentage of gall formation; 100% = no galls)” value (Meloidogyne incognita) is reported as 90% and the logP [1, 3] is reported as 3.81^[b].
For `O=C(NC1CCC1c1c(F)cccc1F)c1ccccc1Br` (stereo not drawn) [Compound 227], the “nematicidal activity (percentage of gall formation; 100% = no galls)” value (Meloidogyne incognita) was 100% and the logP [1, 3] was 2.97^[b].
For `O=C(NC1CCC1c1ccccc1C(F)(F)F)c1cccnc1C(F)(F)F` (stereo not drawn) [Compound 235], the “nematicidal activity (percentage of gall formation; 100% = no galls)” value (Meloidogyne incognita) was 100% and the logP [1, 3] was 2.94^[b].
With `O=C(NC1CC1c1ccc(Cl)cc1)c1ccccc1C(F)(F)F` (stereo not drawn) [Compound 271] the “nematicidal activity (percentage of gall formation; 100% = no galls)” value (Meloidogyne incognita) was 90%, the logP [1, 5] was 2.98^[b] and the logP [1, 6] was 2.94^[c];.
For `O=C(NC1CCCC1c1ccccc1Cl)c1ccccc1C(F)(F)F` (stereo not drawn) [Compound 296], the “nematicidal activity (percentage of gall formation; 100% = no galls)” value (Meloidogyne incognita) was 90% and the logP [1, 5] was 3.55^[b].
In the case of `O=C(NC1CCCC1c1ccccc1Cl)c1cccnc1C(F)(F)F` (stereo not drawn) [Compound 297], the “nematicidal activity (percentage of gall formation; 100% = no galls)” value (Meloidogyne incognita) is reported as 100% and the logP [1, 5] is reported as 3.05^[b].
With `O=C(NC1CCCC1c1c(F)cccc1F)c1ccccc1Cl` (stereo not drawn) [Compound 311] the “nematicidal activity (percentage of gall formation; 100% = no galls)” value (Meloidogyne incognita) was 90% and the logP [1, 5] was 3.24^[b].
For `O=C(NC1CCCC1c1c(F)cccc1F)c1cccnc1C(F)(F)F` (stereo not drawn) [Compound 313], the “nematicidal activity (percentage of gall formation; 100% = no galls)” value (Meloidogyne incognita) was 100% and the logP [1, 5] was 2.87^[b].
With `O=C(NC1CCCC1c1c(F)cccc1F)c1ccccc1I` (stereo not drawn) [Compound 322] the “nematicidal activity (percentage of gall formation; 100% = no galls)” value (Meloidogyne incognita) was 90% and the logP [1, 5] was 3.40^[b].
With `O=C(NC1CCCC1c1ccccc1Br)c1cccnc1C(F)(F)F` (stereo not drawn) [Compound 346] the “nematicidal activity (percentage of gall formation; 100% = no galls)” value (Meloidogyne incognita) was 100% and the logP [1, 5] was 3.13^[b].
For `O=C(NC1CCCC1c1ccccc1Br)c1cccnc1Cl` (stereo not drawn) [Compound 348], the “nematicidal activity (percentage of gall formation; 100% = no galls)” value (Meloidogyne incognita) was 90% and the logP [1, 5] was 2.80^[b].
In the case of `O=C(NC1CCCC1c1ccccc1Br)c1ccccc1Cl` (stereo not drawn) [Compound 349], the “nematicidal activity (percentage of gall formation; 100% = no galls)” value (Meloidogyne incognita) is reported as 90% and the logP [1, 5] is reported as 3.52^[b].
In the case of `O=C(NC1CCCC1c1ccc(Cl)cc1Cl)c1ccccc1I` (stereo not drawn) [Compound 352], the “nematicidal activity (percentage of gall formation; 100% = no galls)” value (Meloidogyne incognita) is reported as 100% and the logP [1, 5] is reported as 4.04^[b].
In the case of `O=C(NC1CCCC1c1ccc(Cl)cc1Cl)c1ccccc1C(F)(F)F` (stereo not drawn) [Compound 353], the “nematicidal activity (percentage of gall formation; 100% = no galls)” value (Meloidogyne incognita) is reported as 100% and the logP [1, 5] is reported as 4.04^[b].
In the case of `O=C(NC1CCCC1c1ccc(Cl)cc1Cl)c1cccnc1C(F)(F)F` (stereo not drawn) [Compound 358], the “nematicidal activity (percentage of gall formation; 100% = no galls)” value (Meloidogyne incognita) is reported as 100% and the logP [1, 5] is reported as 3.54^[b].
In the case of `O=C(NC1CCCCC1c1ccc(Cl)cc1Cl)c1cccnc1C(F)(F)F` (stereo not drawn) [Compound 414], the “nematicidal activity (percentage of gall formation; 100% = no galls)” value (Meloidogyne incognita) is reported as 100% and the logP [1, 5] is reported as 4.03^[b].
In the case of `O=C(NC1CC1c1ccc(Cl)cc1Cl)c1ccccc1C(F)(F)F` (stereo not drawn) [Compound 424], the “nematicidal activity (percentage of gall formation; 100% = no galls)” value (Meloidogyne incognita) is reported as 100% and the logP [1, 5] is reported as 3.46^[b].
With `O=C(NC1CC1c1ccc(Cl)cc1Cl)c1cccnc1Cl` (stereo not drawn) [Compound 425] the “nematicidal activity (percentage of gall formation; 100% = no galls)” value (Meloidogyne incognita) was 100% and the logP [1, 5] was 2.62^[b].
For `O=C(NC1CCC1c1ccccc1C(F)(F)F)c1ccccc1` (stereo not drawn) [Compound 426], the “nematicidal activity (percentage of gall formation; 100% = no galls)” value (Meloidogyne incognita) was 100% and the logP [1, 5] was 3.08^[b].
In the case of `O=C(NC1CCC1c1ccccc1C(F)(F)F)c1ccccc1I` (stereo not drawn) [Compound 427], the “nematicidal activity (percentage of gall formation; 100% = no galls)” value (Meloidogyne incognita) is reported as 100% and the logP [1, 5] is reported as 3.44^[b].
For `O=C(NC1CCC1c1ccccc1C(F)(F)F)c1c(F)cccc1F` (stereo not drawn) [Compound 430], the “nematicidal activity (percentage of gall formation; 100% = no galls)” value (Meloidogyne incognita) was 100% and the logP [1, 5] was 3.09^[b].
For `O=C(NC1CCC1c1ccccc1C(F)(F)F)c1ccccc1Cl` (stereo not drawn) [Compound 432], the “nematicidal activity (percentage of gall formation; 100% = no galls)” value (Meloidogyne incognita) was 100% and the logP [1, 5] was 3.30^[b].
With `O=C(NC1CCC1c1ccccc1C(F)(F)F)c1ccccc1C(F)(F)F` (stereo not drawn) [Compound 434] the “nematicidal activity (percentage of gall formation; 100% = no galls)” value (Meloidogyne incognita) was 90% and the logP [1, 5] was 3.44^[b].
With `O=C(NC1CCC1c1c(F)cccc1F)c1ccccc1I` (stereo not drawn) [Compound 440] the “nematicidal activity (percentage of gall formation; 100% = no galls)” value (Meloidogyne incognita) was 90% and the logP [1, 5] was 3.13^[b].
With `O=C(NC1CCC1c1c(F)cccc1F)c1ccccc1Cl` (stereo not drawn) [Compound 443] the “nematicidal activity (percentage of gall formation; 100% = no galls)” value (Meloidogyne incognita) was 90% and the logP [1, 5] was 2.97^[b].
With `O=C(NC1CC1c1ccc(Cl)cc1)c1nccnc1Cl` (stereo not drawn) [Compound 461] the “nematicidal activity (percentage of gall formation; 100% = no galls)” value (Meloidogyne incognita) was 100%, the logP [1, 5] was 2.29^[b] and the logP [1, 6] was 2.27^[c];.
